From the supplement of paper PMC4862054

Columns and labels:
[1] = tested on: BT-474; conditions: 72 h
How it was run: (§1)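 EC50 was fitted from dose-response curves and censored at the highest concentration tested. To build those curves, breast cancer cell lines (20 µl suspension) were seeded into 384-well plates containing compound at 5 concentrations in 10-fold steps over a compound-specific 10,000-fold range and incubated for 72 h. Readouts were CellTox Green fluorescence (485/520 nm) for cell death and then CellTiter-Glo luminescence for viability, with each plate normalised to 0.1 % DMSO and a positive kill control.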

[2] = tested on: BT-549; conditions: 72 h
How it was run: as §1

[3] = tested on: CAL-120; conditions: 72 h
How it was run: as §1

[4] = tested on: CAL-51; conditions: 72 h
How it was run: as §1

[5] = tested on: CAL-85-1; conditions: 72 h
How it was run: as §1

[6] = tested on: HCC1937; conditions: 72 h
How it was run: as §1

[7] = tested on: Hs578T; conditions: 72 h
How it was run: as §1

[8] = tested on: MCF-10A; conditions: 72 h
How it was run: as §1

[9] = tested on: MDA-MB-231; conditions: 72 h
How it was run: as §1

[10] = tested on: MDA-MB-436; conditions: 72 h
How it was run: as §1

[11] = tested on: MDA-MB-453; conditions: 72 h
How it was run: as §1

[12] = tested on: MDA-MB-468; conditions: 72 h
How it was run: as §1

[13] = tested on: SK-BR-3; conditions: 72 h
How it was run: as §1

[14] = tested on: CAL-148; experiment: normalised viability (% of control), CellTiter-Blue; higher = more viable cells (about 100 = DMSO control); conditions: 300 nM; incubation time: 72 h
Method: (§2)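 DSRT, CellTiter-Blue viability, 72 h incubation. Signal is normalised to DMSO and benzethonium chloride controls. Value is the normalised response at dose 8.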

[15] = tested on: CAL-51; experiment: as above; conditions: 300 nM; incubation time: 72 h
Method: as §2

[16] = tested on: CAL-85-1; experiment: as above; conditions: 300 nM; incubation time: 72 h
Method: as §2

[17] = tested on: DU-4475; experiment: as above; conditions: 300 nM; incubation time: 72 h
Method: as §2

[18] = tested on: HDQ-P1; experiment: as above; conditions: 300 nM; incubation time: 72 h
Method: as §2

[19] = tested on: MDA-MB-453; experiment: as above; conditions: 300 nM; incubation time: 72 h
Method: as §2

[20] = tested on: CAL-148; experiment: as above; conditions: 100 nM; incubation time: 72 h
Method: (§3)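 DSRT, CellTiter-Blue viability, 72 h incubation. Signal is normalised to DMSO and benzethonium chloride controls. Value is the normalised response at dose 7.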

[21] = tested on: CAL-51; experiment: as above; conditions: 100 nM; incubation time: 72 h
Method: as §3

[22] = tested on: CAL-85-1; experiment: as above; conditions: 100 nM; incubation time: 72 h
Method: as §3

[23] = tested on: DU-4475; experiment: as above; conditions: 100 nM; incubation time: 72 h
Method: as §3

[24] = tested on: HDQ-P1; experiment: as above; conditions: 100 nM; incubation time: 72 h
Method: as §3

[25] = tested on: MDA-MB-453; experiment: as above; conditions: 100 nM; incubation time: 72 h
Method: as §3

[26] = tested on: BT-549; experiment: normalised viability (% of control), CellTiter-Blue; higher = more viable cells (100 = DMSO, 0 = benzethonium chloride kill control); conditions: 0.1 nM; incubation time: 72 h
Method: (§4)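 DSRT, CellTiter-Blue viability, 72 h incubation. Signal is normalised to DMSO and benzethonium chloride controls. Value is the normalised response at dose 1.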

[27] = tested on: CAL-120; experiment: as above; conditions: 0.1 nM; incubation time: 72 h
Method: as §4

[28] = tested on: CAL-51; experiment: as above; conditions: 0.1 nM; incubation time: 72 h
Method: as §4

[29] = tested on: DU-4475; experiment: as above; conditions: 0.1 nM; incubation time: 72 h
Method: as §4

[30] = tested on: HCC1599; experiment: as above; conditions: 0.1 nM; incubation time: 72 h
Method: as §4

[31] = tested on: HCC1937; experiment: as above; conditions: 0.1 nM; incubation time: 72 h
Method: as §4

[32] = tested on: HDQ-P1; experiment: as above; conditions: 0.1 nM; incubation time: 72 h
Method: as §4

[33] = tested on: Hs578T; experiment: as above; conditions: 0.1 nM; incubation time: 72 h
Method: as §4

[34] = tested on: MDA-MB-468; experiment: as above; conditions: 0.1 nM; incubation time: 72 h
Method: as §4

[35] = tested on: MFM-223; experiment: as above; conditions: 0.1 nM; incubation time: 72 h
Method: as §4

[36] = tested on: SK-BR-3; experiment: as above; conditions: 0.1 nM; incubation time: 72 h
Method: as §4

C/C(=C\c1csc(C)n1)[C@@H]1C[C@@H]2O[C@]2(C)CCC[C@H](C)[C@H](O)[C@@H](C)C(=O)C(C)(C)[C@@H](O)CC(=O)O1 [Patupilone]
EC50, CellTiter-Glo [1]: 219 nM
EC50, CellTiter-Glo [2]: 9.09 nM
EC50, CellTiter-Glo [3]: 73.8 nM
EC50, CellTiter-Glo [4]: 8.54 nM
EC50, CellTiter-Glo [5]: 18.9 nM
EC50, CellTiter-Glo [6]: > 1000 nM
EC50, CellTiter-Glo [7]: 57.3 nM
EC50, CellTiter-Glo [8]: 57.4 nM
EC50, CellTiter-Glo [9]: 149 nM
EC50, CellTiter-Glo [10]: 14.9 nM
EC50, CellTiter-Glo [11]: 84.9 nM
EC50, CellTiter-Glo [12]: 7.53 nM
EC50, CellTiter-Glo [13]: 38.9 nM
normalised viability [14]: 17.6%
normalised viability [15]: 12.7%
normalised viability [16]: 26.8%
normalised viability [17]: 7.32%
normalised viability [18]: 41%
normalised viability [19]: 20.4%
normalised viability [20]: 17.9%
normalised viability [21]: 12.2%
normalised viability [22]: 28.6%
normalised viability [23]: 7.8%
normalised viability [24]: 41.5%
normalised viability [25]: 20.4%
normalised viability [26]: 113%
normalised viability [27]: 94.6%
normalised viability [28]: 102%
normalised viability [29]: 98.7%
normalised viability [30]: 97.3%
normalised viability [31]: 95.6%
normalised viability [32]: 112%
normalised viability [33]: 118%
normalised viability [34]: 101%
normalised viability [35]: 104%
normalised viability [36]: 102%
